Experimental data: patent publication US20100267561A1, “HERBICIDAL PYRIDAZINONE DERIVATIVES” (priority 2007, published 2010)

Legend:
Assay in all cases: Test B pre-/postemergence plant response
Format in all cases: in vivo
[1] = tested on: pigweed (Amaranthus retroflexus)
How it was run: (§1)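 Preemergence and postemergence (plants 2-18 cm, 1- to 4-leaf stage) applications used test chemicals in a non-phytotoxic solvent with surfactant. Plants were held in a greenhouse 13 to 15 days, then rated visually against controls on a 0-100 scale (0 no effect, 100 complete control).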

corn (Zea mays) = tested on: corn (Zea mays)
How it was run: as §1

kochia (Kochia scoparia) = conditions: for Kochia plant response rating: postemergence, 0-100 scale; for Plant response rating, Kochia: Postemergence
How it was run: as §1

[2] = tested on: blackgrass (Alopecurus myosuroides); conditions: for Blackgrass plant response rating: 8 g ai/ha
How it was run: as §1

[3] = tested on: surinam grass (Brachiaria decumbens)
How it was run: as §1

[4] = tested on: catchweed bedstraw (Galium aparine); conditions: Preemergence; for Galium plant response rating: scale 0 to 100
How it was run: as §1

[5] = tested on: downy bromegrass (Bromus tectorum); conditions: for Bromegrass, Downy plant response rating: 8 g ai/ha
How it was run: as §1

[6] = tested on: johnsongrass (Sorghum halepense)
How it was run: as §1

[7] = tested on: common (oilseed) sunflower (Helianthus annuus); conditions: Preemergence; for Sunflower plant response rating: scale 0 to 100
How it was run: as §1

[8] = tested on: green foxtail (Setaria viridis)
How it was run: as §1

[9] = tested on: eastern black (E.B.) nightshade (Solanum ptycanthum); conditions: Preemergence; for Nightshade, E. B. plant response rating: scale 0 to 100
How it was run: as §1

[10] = tested on: giant foxtail (Setaria faberii)
How it was run: as §1

[11] = tested on: morningglory (Ipomoea coccinea)
How it was run: as §1

[12] = tested on: woolly cupgrass (Eriochloa villosa); conditions: for Cupgrass, Woolly plant response rating: 8 g ai/ha
How it was run: as §1

[13] = 8 g ai/ha, postemergence, 0-100 scale
[14] = 16 g ai/ha, postemergence, 0-100 scale
[15] = Postemergence, 31 g ai/ha, scale 0 to 100
[16] = Postemergence, 62 g ai/ha, scale 0 to 100, 0 no effect, 100 complete control
[17] = Preemergence, 31 g ai/ha, scale 0 to 100 (0 no effect, 100 complete control)
[18] = Preemergence, 62 g ai/ha, 0 to 100 scale, 0 no effect, 100 complete control
[19] = Preemergence, 8 g ai/ha, scale 0 to 100
[20] = Preemergence, 16 g ai/ha, scale 0 to 100
[21] = Postemergence, 16 g ai/ha, scale 0 to 100
[22] = Preemergence, 16 g ai/ha, scale 0 to 100 (0 no effect, 100 complete control)
[23] = 31 g ai/ha, scale 0 to 100 (0 no effect, 100 complete control)
[24] = 62 g ai/ha, 0 to 100 scale, 0 no effect, 100 complete control

## CCCc1cc(-c2ccc(C(F)(F)F)cc2)nn1-c1c(O)cnn(C)c1=O [Compound 72]
[1]; [13]
  Pigweed plant response rating: 0
[1]; [14]
  Pigweed plant response rating: 0
[1]; [15]
  Plant response rating, Pigweed: 0
[1]; [16]
  Plant response rating, Pigweed: 0
[1]; [17]
  Plant response rating, Pigweed: 0
[1]; [18]
  Plant response rating, Pigweed: 50
[1]; [19]
  Pigweed plant response rating: 0
[1]; [20]
  Pigweed plant response rating: 0
Corn (Zea mays); [13]
  Corn plant response rating: 50
Corn (Zea mays); [21]
  Plant response rating, Corn: 90
Corn (Zea mays); [15]
  Plant response rating, Corn: 90
Corn (Zea mays); [16]
  Plant response rating, Corn: 100
Corn (Zea mays); [17]
  Plant response rating, Corn: 85
Corn (Zea mays); [18]
  Plant response rating, Corn: 100
Corn (Zea mays); [19]
  Corn plant response rating: 70
Corn (Zea mays); [20]
  Corn plant response rating: 80
Kochia (Kochia scoparia); 8 g ai/ha
  Kochia plant response rating: 0
Kochia (Kochia scoparia); 16 g ai/ha
  Kochia plant response rating: 0
Kochia (Kochia scoparia); 31 g ai/ha, scale 0 to 100
  Plant response rating, Kochia: 0
Kochia (Kochia scoparia); 62 g ai/ha, scale 0 to 100, 0 no effect, 100 complete control
  Plant response rating, Kochia: 0
[2]; postemergence, 0-100 scale
  Blackgrass plant response rating: 80
[2]; [21]
  Plant response rating, Blackgrass: 95
[2]; [15]
  Plant response rating, Blackgrass: 98
[2]; [16]
  Plant response rating, Blackgrass: 100
[2]; [22]
  Plant response rating, Blackgrass: 90
[2]; [17]
  Plant response rating, Blackgrass: 95
[2]; [18]
  Plant response rating, Blackgrass: 100
[2]; Preemergence, scale 0 to 100
  Blackgrass plant response rating: 60
[3]; [13]
  Surinam Grass plant response rating: 95
[3]; [14]
  Surinam Grass plant response rating: 95
[3]; [15]
  Plant response rating, Surinam Grass: 98
[3]; [16]
  Plant response rating, Surinam Grass: 100
[3]; [17]
  Plant response rating, Surinam Grass: 85
[3]; [18]
  Plant response rating, Surinam Grass: 100
[3]; [20]
  Surinam Grass plant response rating: 85
[4]; [23]
  Plant response rating, Galium: 0
[4]; [24]
  Plant response rating, Galium: 0
[4]; 8 g ai/ha
  Galium plant response rating: 0
[4]; 16 g ai/ha
  Galium plant response rating: 0
[5]; postemergence, 0-100 scale
  Bromegrass, Downy plant response rating: 20
[5]; [21]
  Plant response rating, Bromegrass, Downy: 30
[5]; [15]
  Plant response rating, Bromegrass, Downy: 30
[5]; [16]
  Plant response rating, Bromegrass, Downy: 30
[5]; [22]
  Plant response rating, Bromegrass, Downy: 30
[5]; [17]
  Plant response rating, Bromegrass, Downy: 50
[5]; [18]
  Plant response rating, Bromegrass, Downy: 95
[5]; Preemergence, scale 0 to 100
  Bromegrass, Downy plant response rating: 0
[6]; [13]
  Johnsongrass plant response rating: 70
[6]; [14]
  Johnsongrass plant response rating: 75
[6]; [16]
  Plant response rating, Johnsongrass: 100
[6]; [17]
  Plant response rating, Johnsongrass: 95
[6]; [18]
  Plant response rating, Johnsongrass: 100
[6]; [19]
  Johnsongrass plant response rating: 50
[6]; [20]
  Johnsongrass plant response rating: 55
[7]; [23]
  Plant response rating, Sunflower: 0
[7]; [24]
  Plant response rating, Sunflower: 0
[7]; 8 g ai/ha
  Sunflower plant response rating: 0
[7]; 16 g ai/ha
  Sunflower plant response rating: 0
[8]; [13]
  Foxtail, Green plant response rating: 98
[8]; [21]
  Plant response rating, Foxtail, Green: 98
[8]; [15]
  Plant response rating, Foxtail, Green: 100
[8]; [16]
  Plant response rating, Foxtail, Green: 100
[8]; [17]
  Plant response rating, Foxtail, Green: 100
[8]; [18]
  Plant response rating, Foxtail, Green: 100
[8]; [19]
  Foxtail, Green plant response rating: 25
[8]; [20]
  Foxtail, Green plant response rating: 100
[9]; [23]
  Plant response rating, Nightshade, E. B.: 0
[9]; [24]
  Plant response rating, Nightshade, E. B.: 30
[9]; 8 g ai/ha
  Nightshade, E. B. plant response rating: 0
[9]; 16 g ai/ha
  Nightshade, E. B. plant response rating: 0
[10]; [13]
  Foxtail, Giant plant response rating: 95
[10]; [21]
  Plant response rating, Foxtail, Giant: 100
[10]; [15]
  Plant response rating, Foxtail, Giant: 100
[10]; [16]
  Plant response rating, Foxtail, Giant: 100
[10]; [17]
  Plant response rating, Foxtail, Giant: 100
[10]; [18]
  Plant response rating, Foxtail, Giant: 100
[10]; [19]
  Foxtail, Giant plant response rating: 70
[10]; [20]
  Foxtail, Giant plant response rating: 85
[11]; [13]
  Morningglory plant response rating: 0
[11]; [14]
  Morningglory plant response rating: 0
[11]; [15]
  Plant response rating, Morningglory: 0
[11]; [16]
  Plant response rating, Morningglory: 0
[11]; [17]
  Plant response rating, Morningglory: 0
[11]; [18]
  Plant response rating, Morningglory: 0
[11]; [19]
  Morningglory plant response rating: 0
[11]; [20]
  Morningglory plant response rating: 0
[12]; postemergence, 0-100 scale
  Cupgrass, Woolly plant response rating: 55
[12]; [21]
  Plant response rating, Cupgrass, Woolly: 80
[12]; [15]
  Plant response rating, Cupgrass, Woolly: 90
[12]; [16]
  Plant response rating, Cupgrass, Woolly: 90
[12]; [17]
  Plant response rating, Cupgrass, Woolly: 85
[12]; [18]
  Plant response rating, Cupgrass, Woolly: 100
[12]; Preemergence, scale 0 to 100
  Cupgrass, Woolly plant response rating: 70
